Source: US11780833B2, “Emetine derivatives, prodrugs containing same, and methods of treating conditions using same” (HOWARD UNIVERSITY, priority 2011, dated 2023)
Where two headings read alike, the source gives them in different places.

What was measured:
[1] = pH-responsiveness by HPLC: emetine released in aqueous phosphate buffer; type: physicochemical; conditions: 37° C.
Method: Relative rates of hydrolysis of the compounds listed in Table 5 below over a 48 hour period were evaluated using the percent emetine released from the acid catalyzed hydrolysis of compounds 1 to 6.
The compounds were incubated in aqueous phosphate buffer at pH 5.5, 6.5 and 7.4 at 37° C. over a 48 hour period. High performance liquid chromatography (HPLC) was employed to analyze the samples and quantify how much emetine was released. The compounds whose hydrolysis to emetine is shown in table 5 are all 100% stable at physiological pH 7.4 up to a 5 day exposure.

[2] = In vivo toxicity study in mice
Text: Each experiment or dosage involved three mice, and drug solutions were made in 1% DMSO/PBS. Each experiment was done three times.
The compounds were subjected to in vivo toxicity studies as follows. […] This observation was the same on the third and fourth day.

DU145 cells [3] = assay: Cytotoxicity in 100% confluent DU145 cells (Example 9); type: cell-based; conditions: Homo sapiens, DU-145, 120 h; DU145, 100% confluent cells, medium pH 6.7, day 5
Method: (§1) The cytotoxicity of emetine and Compound 2 (as produced above in Example 1 and referred to in the figures as “ESA44”) was evaluated in DU145 and PC3 cells using 100% confluent cells. Cells were plated at 40,000 cells per well and allowed to grow for 4 days until the pH of the medium was 6.7. Compound 2 was added in RPMI, pH 7.0. The effect of the pH on the hydrolysis of Compound 2 to release emetine was evaluated. FIGS. 1 and 2 are graphs showing the viability of DU145 and PC3 cells as percent of vehicle on day 5 versus concentration of emetine and Compound 2.

PC3 cells [4] = assay: Cytotoxicity in 100% confluent PC3 cells (Example 9); type: cell-based; conditions: Homo sapiens, PC-3, 120 h; PC3, 100% confluent cells, medium pH 6.7, day 5
Method: as §1

LNCaP cells = assay: Cytotoxicity in LNCaP prostate cancer cell line; type: cell-based; conditions: Homo sapiens
Method: (§2) Studies were carried out on three prostate cancer cell lines: LNCaP, PC3, and DU145. […] There was not a significant difference in cytotoxicity of emetine between days 3 and 7. […] This increase is most likely due to the release of emetine from the dithiocarbamate salt over the time period. Further drug release studies at pH 5 confirmed about 45% release of emetine from the dithiocarbamate salt after 3-day incubation at this acidic pH maintained at 37° C., whereas release of emetine from the dithiocarbamate salt was not observed at physiological pH (e.g., about 7.4).
(§3) Various compounds prepared according to Examples 1-5 were studied in LNCaP, PC3, and DU145 cells.

DU145 cells [5] = assay: cells; type: cell-based; conditions: Homo sapiens
Method: as §2, §3
(§4) Various compounds prepared according to Example 6 were studied in DU145 and PC3 cells. The IC50 was determined at 3, 5, and 7 days.

PC3 cells [6] = assay: cells; type: cell-based; conditions: Homo sapiens
Method: as §2, §3, §4

With `CCC1CN2CCc3cc(OC)c(OC)cc3C2CC1CC1c2cc(OC)c(OC)cc2CCN1C(=O)/C=C(/C)C(=O)O` (stereo not drawn) [Compound 5] as the compound, how does the “% Emetine at pH 5.5” value ([1]; pH 5.5, 0 hr) read?
The value was 0.0%.

What about the “% Emetine at pH 5.5” value ([1]; pH 5.5, 24 hrs) of the same compound?
The value was 61.5%.

What about the “% Emetine at pH 5.5” value ([1]; pH 5.5, 48 hrs) of the same compound?
Its value is 77.3%.

And the “% Emetine at pH 6.5” value ([1]; pH 6.5, 0 hr)?
The value was 0.0%.

And the “% Emetine at pH 6.5” value ([1]; pH 6.5, 24 hrs)?
Its value is 24.9%.

And the “% Emetine at pH 7.4 to 8.0 over 72 hrs” value ([1]; pH 7.4 to 8.0, 0 hrs)?
The value was 0.0%.

What about the “% Emetine at pH 7.4 to 8.0 over 72 hrs” value ([1]; pH 7.4 to 8.0, 24 hrs) of the same compound?
The value was 0.0%.

What about the “% Emetine at pH 7.4 to 8.0 over 72 hrs” value ([1]; pH 7.4 to 8.0, 48 hrs) of the same compound?
The value was 0.0%.

What about the toxicity observation ([2]; 11 and 33 MPK, day 5) of the same compound?
The toxicity observation was “no noticeable toxicity effect”.

And the toxicity observation ([2]; 100 MPK or below (33 and 11 MPK), through third and fourth day)?
The toxicity observation was “no noticeable toxicity”.

And the toxicity observation ([2]; 100 MPK, day 5)?
The toxicity observation was “slight weight loss”.

For `CC[C@H]1CN2CCc3cc(OC)c(OC)cc3[C@@H]2C[C@@H]1C[C@H]1NCCc2cc(OC)c(OC)cc21` [Emetine], which IC50 (DU145 cells [3]) is on record?
Its IC50 is 12900 ± 2390 nM.

And the IC50 (PC3 cells [4])?
The IC50 was 3850 ± 149 nM.

What about the IC50 (LNCaP cells; 72 h, 3 day exposure, read-out: IC50) of the same compound?
Its IC50 is 32.9 nM.

And the IC50 (LNCaP cells; 168 h, 7 days, read-out: IC50 after 7 days)?
The IC50 was 27.8 ± 3.84 nM.

And the IC50 (LNCaP cells; 168 h, seven day exposure, read-out: IC50)?
The IC50 was 31.6 nM.

And the IC50 (DU145 cells [5]; DU-145, 72 h, DU145, 3 day exposure, read-out: IC50)?
Its IC50 is 37.9 nM.

What about the IC50 (DU145 cells [5]; DU-145, 168 h, DU145, 7 days, read-out: IC50 after 7 days) of the same compound?
The IC50 was 23.7 ± 1.22 nM.

What about the IC50 (DU145 cells [5]; DU-145, 168 h, DU145, seven day exposure, read-out: IC50) of the same compound?
Its IC50 is 23.4 nM.

And the IC50 (PC3 cells [6]; PC-3, 72 h, PC3, 3 day exposure, read-out: IC50)?
The IC50 was 35.1 nM.

What about the IC50 (PC3 cells [6]; PC-3, 168 h, PC3, 7 days, read-out: IC50 after 7 days) of the same compound?
Its IC50 is 26.8 ± 2.28 nM.

What about the IC50 (PC3 cells [6]; PC-3, 168 h, PC3, seven day exposure, read-out: IC50) of the same compound?
Its IC50 is 29.4 nM.

What about the toxicity observation ([2]; 33 and 11 MPK) of the same compound?
The toxicity observation was “slight weight loss”.

And the toxicity observation ([2]; single dose 100 MPK, within 48 hours)?
The toxicity observation was “killed all three mice”.
